In patent US6723333B1, “Moulded bodies made of thermoplastic polyurethane containing an active substance” (priority 1998, dated 2004):

Test system: sensor bacteria (E. coli—test strain)
Test: Bioimaging of released active substance by effect-dependent bioluminescence of sensor bacteria
Type: cell-based
Details: after high temperatures of about 200° C. required for thermoplastic processing
Description: Microbiological evaluation and quantification of the release of active substance was performed using a new bioimaging technique. This method makes use of the selective effect-dependent bioluminescence of sensor bacteria (E. coli—test strain), in order to render visible the biological activity of the released active substance. The gyrase-inhibiting effect of ciprofloxacin was used in the system according to the invention, Texin® 5590 ciprofloxacin.
For imaging of the antibacterial effect, about 1 cm^2 sized samples of the active substance-containing material were placed in a petri dish and covered with a suspension of sensor bacteria in agarose. After an incubation period of about 30 minutes, the effect-dependent bioluminescence was assessed using a video-imaging system (e.g. EG&G Berthold, Luminograph LB 980). Antibiotic samples then appeared as luminescing areas.

O=C(O)c1cn(C2CC2)c2cc(N3CCNCC3)c(F)cc2c1=O [ciprofloxacin]
microbiological efficacy of the ciprofloxacin released from the polymer matrix: retained
